Results on one molecule are retold here after patent US11293927B2, “Screening methods for PARP modulators” (Ribon Therapeutics, Inc., priority 2018, dated 2022).

One assay has as its target T1, TIPARP (Homo sapiens, UniProt Q7Z3E1).
T1 construct: made in house; host or cells: E. coli
T1 sequence (Q7Z3E1 456-657): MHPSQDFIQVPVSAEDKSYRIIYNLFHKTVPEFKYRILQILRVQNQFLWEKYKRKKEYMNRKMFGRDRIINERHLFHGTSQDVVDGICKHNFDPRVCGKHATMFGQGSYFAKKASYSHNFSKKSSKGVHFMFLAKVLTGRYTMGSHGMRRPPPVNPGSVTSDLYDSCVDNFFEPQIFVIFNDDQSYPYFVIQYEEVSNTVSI
The assay is described as follows: In vitro TR-FRET probe displacement assay (Probe C), TIPARP. In kind it is binding. Conditions: TR-FRET displacement of Probe C, TIPARP residues 456-657. How it is done: A portion of TIPARP (residues 456 to 657 of NP_056323.2 (SEQ ID NO: 1), GenBank Accession No. NM_015508.4) was overexpressed in E. coli cells. An N-terminal fusion tag, […] (SEQ ID NO: 7), was used to purify the protein from cell lysates. The fusion tag was left on the protein for use in the probe displacement assay.
(§1) Displacement of a Probe C binding to monoPARP active sites was measured using a time-resolved fluorescence resonance energy transfer (TR-FRET) assay. 20 nL of a dose response curve of each test compound was spotted in black 384-well polystyrene proxiplates (Perkin Elmer) using a Mosquito (TTP Labtech). Reactions were performed in an 8 μL volume by adding 6 μL of the monoPARP and Probe C in assay buffer (20 mM HEPES pH=8, 100 mM NaCl, 0.1% bovine serum albumin, 2 mM DTT and 0.002% Tween20), incubating with test compound at 25° C. for 30 min, then adding 2 μL of ULight-anti 6×His and LANCE Eu-W 1024 labeled streptavidin (Perkin Elmer). Binding reactions were equilibrated at 25° C. for an additional 30 min, then read on an Envision platereader equipped with a LANCE/DELFIA top mirror (Perkin Elmer) using excitation of 320 nm and emission of 615 nm and […] with a 90 μs delay. The ratio of the 665/615 nm emission were calculated for each well to determine the amount of complex of monoPARP and Probe C in each well. […]
Background: In TR-FRET formats the signal depends on donor and acceptor labels being close together.

The target of the next assay is T2, PARP15 (Homo sapiens, UniProt Q460N3).
T2 construct: made in house; host or cells: Sf9
T2 sequence (Q460N3 481-678): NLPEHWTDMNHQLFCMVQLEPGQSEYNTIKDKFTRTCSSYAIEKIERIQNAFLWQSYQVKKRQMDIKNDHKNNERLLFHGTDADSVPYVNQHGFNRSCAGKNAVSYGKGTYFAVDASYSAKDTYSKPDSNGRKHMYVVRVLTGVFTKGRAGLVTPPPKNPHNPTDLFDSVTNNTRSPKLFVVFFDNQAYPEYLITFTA
The assay is described as follows: In vitro TR-FRET probe displacement assay (Probe C), PARP15. In kind it is binding. Conditions: TR-FRET displacement of Probe C, PARP15 residues 481-678. The procedure: A portion of PARP15 (residues 481 to 678 of NP_689828.1 (SEQ ID NO: 5), GenBank Accession No. NM_152615) was overexpressed in Sf9 cells. An N-terminal fusion tag, […] (SEQ ID NO: 10), was used to purify the protein from cell lysates. The fusion tag was left on the protein for use in the probe displacement assay.
as §1, with “in a” for “in an”, “of ULight-streptavidin” for “of ULight-anti 6×His”, “1024 Anti-6×His” for “1024 labeled streptavidin”

The structures appear in SMILES notation.

As a reminder, the IC50 is the midpoint of a concentration-inhibition curve. Take `O=c1[nH]ncc(N2Cc3ccc(OC4CCNCC4)cc3C2)c1C(F)(F)F` [Compound A, 5-[5-(Piperidin-4-yloxy)-2,3-dihydro-1H-isoindol-2-yl]-4-(trifluoromethyl)-2,3-dihydropyridazin-3-one]: the IC50 at TIPARP was determined as 7 nM; at PARP15 it was 60 nM.
